Assay results taken from ChEMBL document CHEMBL1201862, “PubChem BioAssay data set” (2004).
Active and inactive are the calls of the source.

Tests used:
Type in all cases: functional
[1] = molecular target: SRSF protein kinase 1 (Homo sapiens, UniProt Q96SB4);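 further: measured as one member of a kinome-wide kinase profiling panel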
[2] = molecular target: Serine/threonine-protein kinase Nek4 (Homo sapiens, UniProt P51957)
[3] = molecular target: Ribosomal protein S6 kinase beta-1 (Homo sapiens, UniProt P23443);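 further: measured as one member of a kinome-wide profiling panel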
[4] = molecular target: MAP kinase-activated protein kinase 5 (Homo sapiens, UniProt Q8IW41);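 further: measured as one member of a kinome panel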
[5] = molecular target: Calcium/calmodulin-dependent protein kinase type II subunit delta (Homo sapiens, UniProt Q13557)
[6] = molecular target: Macrophage-stimulating protein receptor (Homo sapiens, UniProt Q04912); assay: Navigating the Kinome. Panel member name: MST1R
[7] = molecular target: 3-phosphoinositide-dependent protein kinase 1 (Homo sapiens, UniProt O15530);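 further: value comes from the Navigating the Kinome panel, PDPK1 member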
[8] = molecular target: Testis-specific serine/threonine-protein kinase 2 (Homo sapiens, UniProt Q96PF2);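 further: part of the Navigating the Kinome panel, target entry STK22B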
[9] = molecular target: Homeodomain-interacting protein kinase 4 (Homo sapiens, UniProt Q8NE63)
[10] = molecular target: Lymphokine-activated killer T-cell-originated protein kinase (Homo sapiens, UniProt Q96KB5);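 further: value comes from a kinase panel screen in which TOPK was one of the panel members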
[11] = molecular target: Mitogen-activated protein kinase 12 (Homo sapiens, UniProt P53778);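 further: measured as one member of a kinome-wide kinase profiling panel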
Mitogen-activated protein kinase 12, sequence (P53778 whole entry): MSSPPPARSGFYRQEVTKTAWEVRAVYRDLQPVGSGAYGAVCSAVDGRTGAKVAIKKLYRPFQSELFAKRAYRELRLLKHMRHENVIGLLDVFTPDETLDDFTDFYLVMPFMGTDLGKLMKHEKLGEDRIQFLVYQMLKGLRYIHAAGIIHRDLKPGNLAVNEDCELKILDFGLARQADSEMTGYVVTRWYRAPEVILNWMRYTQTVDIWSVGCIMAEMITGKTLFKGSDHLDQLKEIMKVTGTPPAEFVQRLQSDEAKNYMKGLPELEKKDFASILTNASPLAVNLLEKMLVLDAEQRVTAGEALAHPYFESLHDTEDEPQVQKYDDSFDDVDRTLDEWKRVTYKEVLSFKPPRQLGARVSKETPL

[12] = molecular target: Dual specificity protein kinase CLK2 (Homo sapiens, UniProt P49760)
[13] = molecular target: Proto-oncogene tyrosine-protein kinase Src (Homo sapiens, UniProt P12931);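 further: SRC entry within a kinome-wide kinase profiling panel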
[14] = molecular target: Serine/threonine-protein kinase 3 (Homo sapiens, UniProt Q13188);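 further: measured as one member of a kinome-wide kinase panel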
[15] = molecular target: Serine/threonine-protein kinase Nek2 (Homo sapiens, UniProt P51955)
[16] = molecular target: Casein kinase I isoform gamma-1 (Homo sapiens, UniProt Q9HCP0);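 further: measured as the CSNK1G1 member of a kinome profiling panel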
[17] = molecular target: Vascular endothelial growth factor receptor 1 (Homo sapiens, UniProt P17948);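 further: measured within a kinome-wide profiling panel, FLT1 as the panel member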
Vascular endothelial growth factor receptor 1, sequence (P17948 whole entry): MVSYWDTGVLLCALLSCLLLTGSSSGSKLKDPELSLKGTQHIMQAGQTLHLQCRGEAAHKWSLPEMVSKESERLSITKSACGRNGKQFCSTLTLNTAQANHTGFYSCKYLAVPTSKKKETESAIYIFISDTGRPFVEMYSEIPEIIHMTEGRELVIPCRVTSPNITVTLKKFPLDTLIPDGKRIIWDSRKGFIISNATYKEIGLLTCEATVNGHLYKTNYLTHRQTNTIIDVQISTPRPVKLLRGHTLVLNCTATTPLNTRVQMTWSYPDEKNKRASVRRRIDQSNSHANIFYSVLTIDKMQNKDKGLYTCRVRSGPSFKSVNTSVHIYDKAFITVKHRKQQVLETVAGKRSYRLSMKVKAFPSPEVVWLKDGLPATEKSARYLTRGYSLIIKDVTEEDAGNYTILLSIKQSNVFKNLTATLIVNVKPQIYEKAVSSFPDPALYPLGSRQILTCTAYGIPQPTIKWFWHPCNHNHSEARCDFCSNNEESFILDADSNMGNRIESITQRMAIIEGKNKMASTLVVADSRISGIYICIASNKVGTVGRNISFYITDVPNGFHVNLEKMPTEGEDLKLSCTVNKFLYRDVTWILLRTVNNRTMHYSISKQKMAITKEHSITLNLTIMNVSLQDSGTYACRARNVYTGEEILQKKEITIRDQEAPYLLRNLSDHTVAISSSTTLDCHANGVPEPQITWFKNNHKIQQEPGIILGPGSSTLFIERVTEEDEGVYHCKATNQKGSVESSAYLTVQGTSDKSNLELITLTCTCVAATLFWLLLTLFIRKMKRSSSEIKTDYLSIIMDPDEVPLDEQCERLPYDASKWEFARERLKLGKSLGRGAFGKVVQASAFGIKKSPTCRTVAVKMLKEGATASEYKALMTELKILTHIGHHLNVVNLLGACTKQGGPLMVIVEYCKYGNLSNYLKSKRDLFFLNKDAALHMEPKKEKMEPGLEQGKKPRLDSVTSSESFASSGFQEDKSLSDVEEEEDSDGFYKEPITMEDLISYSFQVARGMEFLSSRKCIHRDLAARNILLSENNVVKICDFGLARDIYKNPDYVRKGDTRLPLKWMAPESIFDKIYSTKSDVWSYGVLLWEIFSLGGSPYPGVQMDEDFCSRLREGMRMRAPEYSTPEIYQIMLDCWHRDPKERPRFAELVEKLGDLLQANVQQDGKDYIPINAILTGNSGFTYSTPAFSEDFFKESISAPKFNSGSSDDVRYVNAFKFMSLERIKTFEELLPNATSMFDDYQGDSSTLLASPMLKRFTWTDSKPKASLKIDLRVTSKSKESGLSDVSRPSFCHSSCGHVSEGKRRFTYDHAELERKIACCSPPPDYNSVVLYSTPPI

[18] = molecular target: Serine/threonine-protein kinase DCLK1 (Homo sapiens, UniProt O15075);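 further: affinity for DCLK1 (listed as DCAMKL1) measured as one member of a kinome-wide kinase profiling panel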
Serine/threonine-protein kinase DCLK1, sequence (O15075 whole entry): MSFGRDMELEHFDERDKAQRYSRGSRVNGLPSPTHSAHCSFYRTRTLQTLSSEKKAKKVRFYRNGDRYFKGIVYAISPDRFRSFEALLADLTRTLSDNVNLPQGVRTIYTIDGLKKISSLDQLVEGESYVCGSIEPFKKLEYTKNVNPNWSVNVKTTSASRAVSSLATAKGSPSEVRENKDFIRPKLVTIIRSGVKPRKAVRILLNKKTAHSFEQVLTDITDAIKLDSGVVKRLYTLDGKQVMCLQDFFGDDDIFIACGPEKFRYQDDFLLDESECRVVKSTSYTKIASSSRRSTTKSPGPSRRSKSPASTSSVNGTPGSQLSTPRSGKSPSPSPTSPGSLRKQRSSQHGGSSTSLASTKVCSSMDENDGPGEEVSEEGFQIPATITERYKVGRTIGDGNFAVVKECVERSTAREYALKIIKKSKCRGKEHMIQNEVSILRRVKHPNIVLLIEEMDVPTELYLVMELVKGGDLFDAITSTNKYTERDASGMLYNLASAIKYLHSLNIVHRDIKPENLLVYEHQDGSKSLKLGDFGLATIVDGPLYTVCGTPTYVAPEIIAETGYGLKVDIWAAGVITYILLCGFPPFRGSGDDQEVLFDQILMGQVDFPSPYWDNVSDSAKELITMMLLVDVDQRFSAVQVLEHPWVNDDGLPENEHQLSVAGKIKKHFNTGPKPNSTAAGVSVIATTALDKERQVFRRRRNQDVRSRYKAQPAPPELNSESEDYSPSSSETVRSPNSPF

[19] = molecular target: Mast/stem cell growth factor receptor Kit (Homo sapiens, UniProt P10721);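 further: KIT entry within a kinase panel assay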
Mast/stem cell growth factor receptor Kit, sequence (P10721 whole entry): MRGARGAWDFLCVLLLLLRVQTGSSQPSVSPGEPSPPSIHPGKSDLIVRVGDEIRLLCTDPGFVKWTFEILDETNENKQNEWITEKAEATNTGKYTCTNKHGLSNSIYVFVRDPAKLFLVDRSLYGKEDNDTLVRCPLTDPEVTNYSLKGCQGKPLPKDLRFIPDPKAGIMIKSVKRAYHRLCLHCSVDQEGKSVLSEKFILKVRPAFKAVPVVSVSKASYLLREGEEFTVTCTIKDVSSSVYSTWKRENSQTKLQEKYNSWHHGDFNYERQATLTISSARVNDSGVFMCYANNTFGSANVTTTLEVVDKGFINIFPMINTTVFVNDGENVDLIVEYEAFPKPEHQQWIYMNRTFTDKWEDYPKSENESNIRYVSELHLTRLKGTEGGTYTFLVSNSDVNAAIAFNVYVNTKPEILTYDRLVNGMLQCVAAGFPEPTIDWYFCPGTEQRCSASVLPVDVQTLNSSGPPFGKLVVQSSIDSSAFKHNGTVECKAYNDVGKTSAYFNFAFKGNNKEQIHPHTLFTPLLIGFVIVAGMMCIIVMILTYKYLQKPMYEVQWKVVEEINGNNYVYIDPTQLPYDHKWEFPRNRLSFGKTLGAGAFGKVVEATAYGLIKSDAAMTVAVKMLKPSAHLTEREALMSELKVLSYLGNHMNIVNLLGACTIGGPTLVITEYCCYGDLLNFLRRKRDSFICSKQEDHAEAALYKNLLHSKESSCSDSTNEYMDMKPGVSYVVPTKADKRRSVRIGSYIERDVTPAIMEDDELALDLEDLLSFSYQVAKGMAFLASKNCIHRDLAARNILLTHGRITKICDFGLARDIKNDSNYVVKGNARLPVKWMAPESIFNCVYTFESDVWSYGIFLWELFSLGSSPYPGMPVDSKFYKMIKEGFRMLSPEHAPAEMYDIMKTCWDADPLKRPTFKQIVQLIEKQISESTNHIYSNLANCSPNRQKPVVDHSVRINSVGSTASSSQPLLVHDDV

[20] = molecular target: Tyrosine-protein kinase Fyn (Homo sapiens, UniProt P06241)
[21] = molecular target: Ephrin type-A receptor 2 (Homo sapiens, UniProt P29317);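 further: EPHA2 tested as one member of a kinome-wide kinase panel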
[22] = molecular target: BDNF/NT-3 growth factors receptor (Homo sapiens, UniProt Q16620);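 further: NTRK2 measured as one member of a broad kinome-wide kinase profiling panel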
[23] = molecular target: Tyrosine-protein kinase JAK3 (Homo sapiens, UniProt P52333)
[24] = molecular target: Receptor-type tyrosine-protein kinase FLT3 (Homo sapiens, UniProt P36888);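 further: FLT3 was tested as one member of a kinome-wide kinase panel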
[25] = molecular target: MAP/microtubule affinity-regulating kinase 3 (Homo sapiens, UniProt P27448);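 further: MARK3 affinity measured as one member of a kinome panel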
[26] = molecular target: Serine/threonine-protein kinase PAK 1 (Homo sapiens, UniProt Q13153)
[27] = molecular target: Serine/threonine-protein kinase MRCK alpha (Homo sapiens, UniProt Q5VT25)
[28] = molecular target: Serine/threonine-protein kinase PAK 4 (Homo sapiens, UniProt O96013);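 further: value obtained within a kinome profiling panel in which PAK4 was one of the panel members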
[29] = molecular target: Serine/threonine-protein kinase pim-2 (Homo sapiens, UniProt Q9P1W9);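 further: value comes from a broad kinase panel profiling study in which PIM2 was one of the panel members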
[30] = molecular target: STE20-like serine/threonine-protein kinase (Homo sapiens, UniProt Q9H2G2)
[31] = molecular target: Megakaryocyte-associated tyrosine-protein kinase (Homo sapiens, UniProt P42679);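 further: affinity measured as one member of a kinase panel (Navigating the Kinome) against MATK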
Megakaryocyte-associated tyrosine-protein kinase, sequence (P42679 whole entry): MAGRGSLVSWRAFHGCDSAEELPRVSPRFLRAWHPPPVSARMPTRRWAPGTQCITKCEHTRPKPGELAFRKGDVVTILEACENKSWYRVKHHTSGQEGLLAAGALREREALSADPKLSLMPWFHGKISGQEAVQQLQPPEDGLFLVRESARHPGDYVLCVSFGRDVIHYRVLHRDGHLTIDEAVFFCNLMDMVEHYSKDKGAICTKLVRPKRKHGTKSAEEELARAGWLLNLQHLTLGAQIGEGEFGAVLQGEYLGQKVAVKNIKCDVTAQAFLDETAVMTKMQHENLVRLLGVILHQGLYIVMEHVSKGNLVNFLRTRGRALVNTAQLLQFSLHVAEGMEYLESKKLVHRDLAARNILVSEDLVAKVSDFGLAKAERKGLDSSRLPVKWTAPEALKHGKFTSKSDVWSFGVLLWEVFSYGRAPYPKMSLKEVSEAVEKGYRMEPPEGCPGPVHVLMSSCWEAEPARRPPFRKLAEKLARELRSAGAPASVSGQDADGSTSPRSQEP

[32] = molecular target: Serine/threonine-protein kinase D2 (Homo sapiens, UniProt Q9BZL6);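 further: measured against PRKD2 as one member of a kinome-wide kinase profiling panel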
[33] = molecular target: Receptor tyrosine-protein kinase erbB-2 (Homo sapiens, UniProt P04626); assay: Navigating the Kinome. Panel member name: ERBB2
[34] = molecular target: Tyrosine-protein kinase Srms (Homo sapiens, UniProt Q9H3Y6);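 further: SRMS measured as one member of a kinome-wide kinase profiling panel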
[35] = molecular target: Protein kinase C iota type (Homo sapiens, UniProt P41743);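 further: measured within a kinome-wide kinase panel, PRKCI as panel member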
[36] = molecular target: Cyclin-dependent kinase 5 (Homo sapiens, UniProt Q00535);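 further: CDK5 measured as one member of a kinase profiling panel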
Cyclin-dependent kinase 5, sequence (Q00535 whole entry): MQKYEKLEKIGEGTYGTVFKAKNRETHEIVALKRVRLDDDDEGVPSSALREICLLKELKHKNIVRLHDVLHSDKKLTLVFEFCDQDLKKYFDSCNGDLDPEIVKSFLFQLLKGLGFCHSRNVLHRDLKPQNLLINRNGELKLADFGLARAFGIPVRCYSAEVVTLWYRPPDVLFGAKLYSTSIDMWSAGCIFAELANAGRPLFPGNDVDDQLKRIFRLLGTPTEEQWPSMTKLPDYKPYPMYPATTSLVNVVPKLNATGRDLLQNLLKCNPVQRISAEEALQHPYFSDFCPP

[37] = molecular target: Fibroblast growth factor receptor 3 (Homo sapiens, UniProt P22607)
[38] = molecular target: Insulin receptor (Homo sapiens, UniProt P06213);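 further: insulin receptor kinase tested as one member of a kinome-wide kinase panel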
[39] = molecular target: Protein kinase C delta type (Homo sapiens, UniProt Q05655)
[40] = molecular target: Tyrosine-protein kinase ITK/TSK (Homo sapiens, UniProt Q08881);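 further: affinity for ITK measured as one member of a broad kinase panel profiling binding across the kinome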
[41] = molecular target: T1, Aurora kinase A (Homo sapiens, UniProt O14965);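 further: value from the Navigating the Kinome kinase panel profiling, panel entry STK6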
T1 sequence (O14965 whole entry): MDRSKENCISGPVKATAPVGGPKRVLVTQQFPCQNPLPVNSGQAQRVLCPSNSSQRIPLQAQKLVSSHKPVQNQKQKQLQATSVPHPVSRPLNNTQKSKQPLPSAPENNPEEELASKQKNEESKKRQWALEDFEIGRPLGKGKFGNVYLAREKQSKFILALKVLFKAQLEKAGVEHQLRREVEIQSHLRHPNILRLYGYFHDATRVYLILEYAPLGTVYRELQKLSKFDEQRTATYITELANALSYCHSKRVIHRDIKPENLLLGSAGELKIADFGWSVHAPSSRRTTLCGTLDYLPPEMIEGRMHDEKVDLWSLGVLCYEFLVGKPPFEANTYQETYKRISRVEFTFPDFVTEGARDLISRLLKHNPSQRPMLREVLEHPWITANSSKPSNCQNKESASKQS

Serine/threonine-protein kinase Nek4, sequence (P51957 whole entry): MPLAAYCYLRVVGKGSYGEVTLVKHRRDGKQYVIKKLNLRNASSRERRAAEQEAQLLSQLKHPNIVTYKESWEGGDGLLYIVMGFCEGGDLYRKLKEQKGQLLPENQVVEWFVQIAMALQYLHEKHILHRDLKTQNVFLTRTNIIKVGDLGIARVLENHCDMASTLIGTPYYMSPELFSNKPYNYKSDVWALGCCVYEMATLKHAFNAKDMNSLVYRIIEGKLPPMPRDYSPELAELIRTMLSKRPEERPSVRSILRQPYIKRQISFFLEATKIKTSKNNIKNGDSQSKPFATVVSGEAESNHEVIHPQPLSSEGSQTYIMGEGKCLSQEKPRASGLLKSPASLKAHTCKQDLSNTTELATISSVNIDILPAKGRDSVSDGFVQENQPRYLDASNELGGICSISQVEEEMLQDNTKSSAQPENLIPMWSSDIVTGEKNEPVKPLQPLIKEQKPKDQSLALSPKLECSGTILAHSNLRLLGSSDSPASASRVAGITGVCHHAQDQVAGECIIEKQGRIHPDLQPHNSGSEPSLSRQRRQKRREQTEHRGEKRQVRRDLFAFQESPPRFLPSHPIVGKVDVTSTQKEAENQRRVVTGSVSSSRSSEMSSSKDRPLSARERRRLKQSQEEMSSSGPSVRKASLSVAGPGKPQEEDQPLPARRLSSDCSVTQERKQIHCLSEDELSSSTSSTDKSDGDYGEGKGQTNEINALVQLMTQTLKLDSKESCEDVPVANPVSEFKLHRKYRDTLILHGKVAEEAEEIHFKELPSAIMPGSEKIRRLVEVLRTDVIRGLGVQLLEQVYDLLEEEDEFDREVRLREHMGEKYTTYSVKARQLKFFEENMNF

## Cc1ccc2nccc(NC(=O)Nc3cccc(C(F)(F)F)n3)c2c1
[1]
  Ki: > 7940 nM (inactive)
[2]
  Ki: > 6310 nM (inactive)
[3]
  Ki: > 6310 nM (inactive)
[4]
  Ki: > 1580 nM (inactive)
[5]
  Ki: > 6310 nM (inactive)
[6]
  Ki: 2510 nM (active)
[7]
  Ki: > 3980 nM (inactive)
[8]
  Ki: > 1580 nM (inactive)
[9]
  Ki: 251 nM (active)
[10]
  Ki: 2000 nM (active)
[11]
  Ki: > 6310 nM (inactive)
[12]
  Ki: > 2000 nM (inactive)
[13]
  Ki: > 2000 nM (inactive)
[14]
  Ki: 158 nM (active)
[15]
  Ki: > 10000 nM (inactive)
[16]
  Ki: > 6310 nM (inactive)
[17]
  Ki: > 2000 nM (inactive)
[18]
  Ki: > 10000 nM (inactive)
[19]
  Ki: > 3160 nM (inactive)
[20]
  Ki: > 794 nM (inactive)
[21]
  Ki: > 3160 nM (inactive)
[22]
  Ki: > 5010 nM (inactive)
[23]
  Ki: > 3160 nM (inactive)
[24]
  Ki: 251 nM (active)
[25]
  Ki: > 6310 nM (inactive)
[26]
  Ki: > 10000 nM (inactive)
[27]
  Ki: > 10000 nM (inactive)
[28]
  Ki: > 5010 nM (inactive)
[29]
  Ki: > 1580 nM (inactive)
[30]
  Ki: > 10000 nM (inactive)
[31]
  Ki: > 2000 nM (inactive)
[32]
  Ki: > 10000 nM (inactive)
[33]
  Ki: > 1580 nM (inactive)
[34]
  Ki: > 1580 nM (inactive)
[35]
  Ki: > 5010 nM (inactive)
[36]
  Ki: 316 nM (active)
[37]
  Ki: > 2000 nM (inactive)
[38]
  Ki: > 5010 nM (inactive)
[39]
  Ki: > 7940 nM (inactive)
[40]
  Ki: > 1580 nM (inactive)

## Cc1nn(C)c2sc3c(=O)[nH]cnc3c12
[41]
  Ki: > 63100 nM (inactive)
[36]
  Ki: 79400 nM (active)
[38]
  Ki: > 50100 nM (inactive)

## COc1cc2c(cc1F)C(c1ccccc1Cl)=Nc1c(n[nH]c1C)N2 [RG-1530]
[1]
  Ki: 3160 nM (active)
[2]
  Ki: > 6310 nM (inactive)
[3]
  Ki: > 6310 nM (inactive)
[4]
  Ki: > 1580 nM (inactive)
[5]
  Ki: > 6310 nM (inactive)
[6]
  Ki: 39.8 nM (active)
[7]
  Ki: 50.1 nM (active)
[8]
  Ki: 1000 nM (active)
[9]
  Ki: > 7940 nM (inactive)
[10]
  Ki: > 10000 nM (inactive)
[11]
  Ki: > 6310 nM (inactive)
[12]
  Ki: 2510 nM (active)
[13]
  Ki: 126 nM (active)
[14]
  Ki: 39.8 nM (active)
[15]
  Ki: > 6310 nM (inactive)
[16]
  Ki: > 6310 nM (inactive)
[17]
  Ki: 50.1 nM (active)
[18]
  Ki: > 10000 nM (inactive)
[19]
  Ki: 200 nM (active)
[20]
  Ki: 316 nM (active)
[21]
  Ki: 50.1 nM (active)
[22]
  Ki: 100 nM (active)
[23]
  Ki: 79.4 nM (active)
[24]
  Ki: 79.4 nM (active)
[25]
  Ki: > 2510 nM (inactive)
[26]
  Ki: 316 nM (active)
[27]
  Ki: > 10000 nM (inactive)
[28]
  Ki: 79.4 nM (active)
[29]
  Ki: > 1580 nM (inactive)
[30]
  Ki: 39.8 nM (active)
[31]
  Ki: > 2000 nM (inactive)
[32]
  Ki: > 10000 nM (inactive)
[33]
  Ki: > 1580 nM (inactive)
[34]
  Ki: > 1580 nM (inactive)
[35]
  Ki: > 5010 nM (inactive)
[41]
  Ki: 25.1 nM (active)
[37]
  Ki: 25.1 nM (active)
[39]
  Ki: 3160 nM (active)
[40]
  Ki: 126 nM (active)
